Results on 4 sequences are retold here after patent US20230346912A1 (priority 2022, published 2023).

The test relates to spleen lymphocytes of B2 haplotype chickens infected with H9N2 AIV. The class given is cell-based, chicken.
For the sequence AVKGIGTMV [Polypeptide P10], the “immunogenicity of individual peptide (IFN-γ ELISpot)” value is “considered immunogenic”. With DVSFQGRGV [Polypeptide P11] the entry was “considered immunogenic”. With MSRDWLMLI [Polypeptide P373] the entry was “considered immunogenic”; with WIIRNWETV [Polypeptide P257], “considered immunogenic”.
